“Also recorded” adds a separate entry of the source.
Tests used:
[1] = Incorporation into clots induced in a rat model (rat inferior vena cava model); assay type: in vivo, rat (Male Wistar); conditions: for % id/g (clot) / Rel. Conc. (cpm/g of clot by dose/g animal): sacrificed after 60 min
Description: The rats (Male Wistar, 250–350 g) were anaesthetised with 15% urethane. After laparotomy, the vena cava was isolated and freed of surrounding fat tissue. […] The compounds were injected 5 min (fresh clot) and 60 min (aged clot) post-induction. After 60 min the animals were sacrificed and the clot removed, weighed and counted. Other tissues e.g. blood, lung, heart, were also dissected and counted. The uptake of tracer into the clot was determined as the relative concentration (cpm/g of clot by dose/g animal) and clot to background tissue.

[2] = target: T1, fibrin (in vitro human plasma clot) (Homo sapiens, UniProt P02671+P02675+P02679); test: Incorporation into human plasma clots in vitro; assay type: biochemical; conditions: for % specific uptake: % retained (with thrombin) - % retained (no thrombin); for % retained (no thrombin): control without thrombin and calcium chloride (non-specific binding); for % retained (with thrombin): human plasma clot, 60 minutes, ca. 20° C.
T1 construct: about 400 μl of human plasma containing the radiolabelled substrate; from tissue; host or cells: human plasma, clotted in vitro with added thrombin and calcium chloride
T1 sequence (P02671 20-644 isoform P02671-2 limits assumed): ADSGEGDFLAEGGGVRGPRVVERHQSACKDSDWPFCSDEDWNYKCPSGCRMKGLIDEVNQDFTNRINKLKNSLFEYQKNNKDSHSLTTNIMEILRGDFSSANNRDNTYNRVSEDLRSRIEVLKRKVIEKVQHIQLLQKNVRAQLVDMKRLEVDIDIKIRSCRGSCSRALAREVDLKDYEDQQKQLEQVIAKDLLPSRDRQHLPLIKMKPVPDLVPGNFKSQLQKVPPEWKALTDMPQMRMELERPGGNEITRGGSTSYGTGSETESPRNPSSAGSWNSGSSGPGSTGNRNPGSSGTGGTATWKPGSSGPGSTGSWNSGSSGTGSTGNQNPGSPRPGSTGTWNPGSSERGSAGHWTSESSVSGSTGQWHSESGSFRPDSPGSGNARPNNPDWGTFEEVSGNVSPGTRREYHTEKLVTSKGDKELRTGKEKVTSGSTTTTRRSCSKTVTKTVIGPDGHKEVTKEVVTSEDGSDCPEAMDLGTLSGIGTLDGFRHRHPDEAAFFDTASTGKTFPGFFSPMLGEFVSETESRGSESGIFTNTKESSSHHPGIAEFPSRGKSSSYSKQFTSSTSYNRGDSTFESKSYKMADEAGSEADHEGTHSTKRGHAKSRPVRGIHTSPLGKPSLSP
T1 sequence (P02675 45-491 limits assumed): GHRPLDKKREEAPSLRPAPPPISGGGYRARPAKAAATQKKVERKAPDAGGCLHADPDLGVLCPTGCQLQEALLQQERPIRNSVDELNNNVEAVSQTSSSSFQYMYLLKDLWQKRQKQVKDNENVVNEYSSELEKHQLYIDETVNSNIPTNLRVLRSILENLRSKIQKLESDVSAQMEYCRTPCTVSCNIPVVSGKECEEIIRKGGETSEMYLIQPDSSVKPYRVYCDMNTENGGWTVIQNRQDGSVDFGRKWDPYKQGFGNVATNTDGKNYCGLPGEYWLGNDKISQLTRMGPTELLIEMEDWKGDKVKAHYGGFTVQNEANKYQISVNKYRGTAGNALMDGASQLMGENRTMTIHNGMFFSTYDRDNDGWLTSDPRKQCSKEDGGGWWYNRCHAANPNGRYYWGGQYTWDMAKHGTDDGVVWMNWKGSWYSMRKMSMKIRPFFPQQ
T1 sequence (P02679 27-437 isoform P02679-2 limits assumed): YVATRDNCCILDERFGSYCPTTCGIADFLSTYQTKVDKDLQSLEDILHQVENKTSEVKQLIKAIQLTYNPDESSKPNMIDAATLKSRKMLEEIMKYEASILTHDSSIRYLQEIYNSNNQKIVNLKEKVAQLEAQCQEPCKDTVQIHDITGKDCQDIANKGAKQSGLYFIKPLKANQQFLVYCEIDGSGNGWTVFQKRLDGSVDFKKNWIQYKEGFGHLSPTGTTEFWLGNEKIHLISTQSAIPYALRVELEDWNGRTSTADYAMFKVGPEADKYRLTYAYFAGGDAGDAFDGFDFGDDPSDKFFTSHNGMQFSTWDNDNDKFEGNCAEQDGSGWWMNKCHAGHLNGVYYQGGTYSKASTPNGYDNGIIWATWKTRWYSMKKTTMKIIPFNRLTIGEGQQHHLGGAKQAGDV
Description: Incorporation of radiolabelled substrates into fibrin was investigated by induction of an in vitro human plasma clot in the following manner. To a siliconised 5 ml glass vial was added, (a) 800 μl of Tris(hydroxymethyl)aminomethane buffered saline pH 7.5 containing calcium chloride (50 mM Tris, 150 mM sodium chloride, 4 mM calcium chloride.), (b) about 40 μl of physiological salt solution containing 100 units of thrombin per ml, (c) about 400 μl of human plasma containing the radiolabelled substrate at a concentration of typically 10 kBq/ml. To aid induction of clot a roughened glass rod was added to the reaction vial. Control vials were prepared similarly but with the omission of thrombin and calcium chloride.
After incubation of the test solution at ambient laboratory temperature (ca. 20° C.) for 60 minutes the reaction was discontinued with the addition of about 400 μl of a cold solution of 33.5 mM ethylenediaminetetra-acetic acid disodium salt. Clots were separated from serum by vacuum filtration onto […] nitrocellulose filters (pre-soaked in 1.5% BSA/tris(hydroxymethyl)aminoethae buffered saline pH 7.5 containing 0.1% Tween 20) and washed with about 2×10 ml of tris(hydroxymethyl)aminomethane buffered saline pH 7.5 containing Tween 20 to a final concentration of 0.1% v/v. The proportion of total radioactivity was calculated by counting in suitable detection apparatus.
The fraction of radioactivity retained on the filter, after subtraction of the non-specific binding determined from the control, is a measure of incorporation into the filtered clots.

[3] = Aged Clots: injected 60 min post-induction
[4] = Fresh Clots: injected 5 min post-induction

| % specific uptake [2] | % retained (no thrombin) [2] | % retained (with thrombin) [2] | Substance | Clot/blood ([1]; Aged Clots) | Clot/heart ([1]; Aged Clots) | Clot/liver ([1]; Aged Clots) | Clot/lung ([1]; Aged Clots) | % id/g (clot) [1, 3] | Rel. Conc. (cpm/g of clot by dose/g animal) [1, 3] | Clot/blood ([1]; Fresh Clots) | Clot/heart ([1]; Fresh Clots) | Clot/liver ([1]; Fresh Clots) | Clot/lung ([1]; Fresh Clots) | % id/g (clot) [1, 4] | Rel. Conc. (cpm/g of clot by dose/g animal) [1, 4] | in vitro clot uptake (in words) [2] |
| --- | --- | --- | --- | --- | --- | --- | --- | --- | --- | --- | --- | --- | --- | --- | --- | --- |
| 28.6% | 0.1% | 28.7% | Ac-LGPGQSKVIG-Pn44 (also: 99mTc complex) [^99mTc-Cmpd 45] | 8 | 11 | 3 | 5 | 2.0 ± 0.8 % id/g | 5.7 ± 2.3 | 6 | 10 | 3 | 5 | 2.0 ± 0.5 % id/g | 5.5 ± 1.3 |  |
| 2.8% | 0.5% | 3.3% | Ac-NAEAVSPYTLLKG-Pn216 (also: 99mTc complex) [^99mTc-Cmpd 14] | 1.4 | 2 | 0.7 | 1.3 | 0.6 ± 0.4 % id/g | 1.4 ± 0.8 | 2 | 3 | 0.7 | 1.5 | 0.5 ± 0.1 % id/g | 1.2 ± 0.2 | significant reduction in uptake; also recorded: large drop in uptake |
| 56.8% | 0.2% | 57.0% | Ac-NQEAVSPYTLLKG-Pn216 (also: 99mTc complex) [^99mTc-Cmpd 13] | 6 | 29 | 19 | 9 | 4.5 ± 1.5 % id/g | 10.4 ± 3.0 | 7 | 18 | 18 | 8 | 3.4 ± 0.7 % id/g | 7.9 ± 1.6 |  |
| 15.3% | 0.6% | 15.9% | Ac-NQEQ(D-V)(D-S)(D-P)(D-Y)(D-T)(D-L)(D-L)(D-K)G-Pn44 [^99mTc-Cmpd 35] | 1 | 1 | 2 | 0.5 | 0.6 ± 0.1 % id/g | 1.5 ± 0.4 | 2 | 4 | 2 | 2 | 1.2 ± 0.2 % id/g | 3.7 ± 0.8 |  |
| 7.6% | 0.1% | 7.7% | Ac-NQEQ(D-V)(D-S)P(D-Y)TLL(D-K)G-Pn216 [^99mTc-Cmpd 31] | 0.6 | 9 | 2 | 4 | 0.2 ± 0.1 % id/g | 0.6 ± 0.2 | 0.6 | 2 | 3 | 1 | 0.3 ± 0.2 % id/g | 0.9 ± 0.6 | significant reduction in uptake |
| 21.0% | 0.1% | 21.1% | Ac-NQEQVSP(D-Y)TLL(D-K)G-Pn216 [^99mTc-Cmpd 29] | 11 | 67 | 29 | 30 | 3.8 ± 0.4 % id/g | 10.0 ± 1.7 | 14 | 44 | 44 | 20 | 4.7 ± 1.9 % id/g | 13.0 ± 4.9 |  |
| 63.8% | 0.1% | 63.9% | Ac-NQEQVSP(D-Y)TLL(D-K)βAla-Pn216 [^99mTc-Cmpd 33] | 16 | 24 | 16 | 9 | 2.2 ± 0.6 % id/g | 6.7 ± 1.6 | 11 | 32 | 28 | 16 | 2.7 ± 0.2 % id/g | 7.8 ± 0.6 |  |
| 63.7% | 0.1% | 63.8% | Ac-NQEQVSP(I2-Y)TLLKG-Pn216 [^99mTc-Cmpd 23] | 13 | 1 | 1 | 1 | 7.5 ± 2.5 % id/g | 17.6 ± 4.6 | 6 | 17 | 21 | 6 | 7.6 ± 1.8 % id/g | 18.2 ± 4.1 |  |
| 58.7% | 0.3% | 59.0% | Ac-NQEQVSP(I-Y)TLLKG-Pn216 [^99mTc-Cmpd 22] | 11 | 3 | 4 | 1 | 6.9 ± 2.5 % id/g | 22.7 ± 7.4 | 11 | 28 | 25 | 13 | 3.8 ± 1.6 % id/g | 13.0 ± 5.5 |  |
| 60.1% | 0.5% | 60.6% | Ac-NQEQVSP(pBr-F)TLLKG-Pn216 [^99mTc-Cmpd 21] | 31 | 32 | 31 | 13 | 2.7 ± 2.3 % id/g | 8.5 ± 6.8 | 11 | 28 | 13 | 16 | 2.3 ± 1.3 % id/g | 7.4 ± 4.0 |  |

Source: patent publication US7049289B1, “Labelled glutamine and lysine analogues” (Amersham PLC, priority 1998, dated 2006)
